Activity, Kd and Ratio IC50 data for one compound are collected here from ChEMBL document CHEMBL5131570, “Discovery of Potent Small-Molecule USP8 Inhibitors for the Treatment of Breast Cancer through Regulating ERα Expression” (J Med Chem, 2022).

In assay [1] the target is T1, Ubiquitin carboxyl-terminal hydrolase 8 (Homo sapiens) (UniProt P40818).
T1 sequence (whole entry): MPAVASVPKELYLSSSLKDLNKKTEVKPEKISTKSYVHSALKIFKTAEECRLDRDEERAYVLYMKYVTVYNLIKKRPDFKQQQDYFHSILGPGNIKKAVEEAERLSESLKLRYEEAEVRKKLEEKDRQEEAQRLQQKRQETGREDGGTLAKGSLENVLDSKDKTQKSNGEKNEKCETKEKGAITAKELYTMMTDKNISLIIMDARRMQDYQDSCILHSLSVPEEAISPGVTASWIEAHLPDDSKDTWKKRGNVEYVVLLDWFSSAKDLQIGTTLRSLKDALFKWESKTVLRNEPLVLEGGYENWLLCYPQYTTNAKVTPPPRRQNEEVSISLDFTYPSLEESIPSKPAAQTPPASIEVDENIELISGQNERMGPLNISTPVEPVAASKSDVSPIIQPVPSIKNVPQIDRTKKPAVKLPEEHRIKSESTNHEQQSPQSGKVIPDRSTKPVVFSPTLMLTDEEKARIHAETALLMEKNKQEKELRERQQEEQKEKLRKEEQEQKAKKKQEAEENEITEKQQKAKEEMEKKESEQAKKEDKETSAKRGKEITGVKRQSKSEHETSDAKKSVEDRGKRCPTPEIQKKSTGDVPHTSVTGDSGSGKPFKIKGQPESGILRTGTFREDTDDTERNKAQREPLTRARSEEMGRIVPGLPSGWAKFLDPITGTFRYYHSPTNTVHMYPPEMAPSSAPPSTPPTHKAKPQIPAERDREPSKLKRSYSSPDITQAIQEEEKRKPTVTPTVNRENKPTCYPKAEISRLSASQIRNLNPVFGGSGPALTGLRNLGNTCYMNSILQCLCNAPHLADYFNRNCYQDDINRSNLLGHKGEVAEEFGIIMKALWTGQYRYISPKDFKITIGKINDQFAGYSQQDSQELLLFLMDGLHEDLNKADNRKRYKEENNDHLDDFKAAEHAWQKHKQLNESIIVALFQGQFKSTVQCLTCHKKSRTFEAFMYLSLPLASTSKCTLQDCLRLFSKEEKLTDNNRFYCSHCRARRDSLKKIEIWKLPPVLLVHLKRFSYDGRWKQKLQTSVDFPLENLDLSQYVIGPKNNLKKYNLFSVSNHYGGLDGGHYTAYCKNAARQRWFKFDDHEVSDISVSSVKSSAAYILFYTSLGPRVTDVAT
The experiment in a line: Binding affinity to N-terminal His6-tagged USP8 catalytic domain (734 to 1110 residues) (unknown origin) expressed in Escherichia coli BL21 (DE3) cells using K63-linked di-ubiquitin as substrate by di-ubiquitin cleavage assay.

Assay [2] concerns the target T2, Ubiquitin carboxyl-terminal hydrolase 8 (Homo sapiens, UniProt P40818).
T2 sequence (P40818 whole entry): T1 sequence (whole entry)
Nature of the assay: Binding affinity to N-terminal His6-tagged USP8 catalytic domain (734 to 1110 residues) (unknown origin) expressed in Escherichia coli BL21 (DE3) cells by surface plasmon resonance method. On the technique in general: SPR reads the build-up and loss of mass on a sensor chip optically.

The species named for the next assay is Homo sapiens. Nature of the assay: Selectivity ratio of IC50 for USP2 (unknown origin) catalytic domain to IC50 for USP8 (unknown origin) catalytic domain.

SMILES strings stand for the structures. Activity calls are given as the source filed them. The calls are words filed in the database; no cut-off is given here.

The term Kd denotes the equilibrium constant for the complex coming apart. Regarding `Cc1n[nH]c(C)c1Oc1c(O)cc(O)c2c(=O)cc(-c3ccc(N4CCN(c5ccccn5)CC4)cc3)oc12`, in assay [1], the outcome was Active. Besides, binding in assay [2] was put at a Kd of 4.7 µM. In addition, the Ratio IC50 in the assay filed under Homo sapiens stood at 49.
